Assay results published in publication PMC6199744, “Development of Chemical Proteomics for the Folateome and Analysis of the Kinetoplastid Folateome” (ACS Infectious Diseases, 2018).
Like-named read-outs stand apart in the source and are kept apart here.

Experiments:
Type in all cases: binding
[1] = molecular target: T1, HeLa cell extract proteins (Homo sapiens, UniProt O00571)
T1 construct: endogenous in cells; host or cells: HeLa cell extract

[2] = molecular target: T2, HeLa cell extract proteins (Homo sapiens, UniProt P15104)
T2 construct: endogenous in cells; host or cells: HeLa cell extract
T2 sequence (P15104 whole entry): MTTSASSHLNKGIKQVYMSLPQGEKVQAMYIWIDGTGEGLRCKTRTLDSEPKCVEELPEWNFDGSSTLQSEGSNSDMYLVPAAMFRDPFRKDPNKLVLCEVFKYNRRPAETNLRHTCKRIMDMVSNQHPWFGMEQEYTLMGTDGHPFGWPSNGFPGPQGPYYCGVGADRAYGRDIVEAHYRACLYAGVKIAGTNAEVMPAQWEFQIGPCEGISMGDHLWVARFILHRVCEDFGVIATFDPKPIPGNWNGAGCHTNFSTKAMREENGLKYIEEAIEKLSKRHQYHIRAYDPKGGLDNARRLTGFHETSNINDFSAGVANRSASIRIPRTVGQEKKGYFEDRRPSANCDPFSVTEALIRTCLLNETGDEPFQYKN

[3] = molecular target: T3, HeLa cell extract proteins (Homo sapiens, UniProt P49368)
T3 construct: endogenous in cells; host or cells: HeLa cell extract
T3 sequence (P49368 1-545): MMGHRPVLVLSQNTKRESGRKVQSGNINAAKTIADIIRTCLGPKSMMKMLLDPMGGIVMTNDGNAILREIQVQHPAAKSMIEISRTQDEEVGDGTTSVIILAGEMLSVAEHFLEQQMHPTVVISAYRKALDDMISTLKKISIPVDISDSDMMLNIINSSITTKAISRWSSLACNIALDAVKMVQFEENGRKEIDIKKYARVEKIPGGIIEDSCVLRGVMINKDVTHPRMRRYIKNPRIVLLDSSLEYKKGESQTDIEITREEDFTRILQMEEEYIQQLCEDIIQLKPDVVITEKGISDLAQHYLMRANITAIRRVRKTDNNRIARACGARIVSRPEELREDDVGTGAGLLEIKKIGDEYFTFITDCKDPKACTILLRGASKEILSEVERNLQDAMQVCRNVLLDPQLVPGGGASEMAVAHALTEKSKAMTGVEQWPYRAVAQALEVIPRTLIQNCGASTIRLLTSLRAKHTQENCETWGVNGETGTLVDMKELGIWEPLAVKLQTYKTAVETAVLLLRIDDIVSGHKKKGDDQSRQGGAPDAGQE

[4] = molecular target: T4, HeLa cell extract proteins (Homo sapiens, UniProt Q15067)
T4 construct: endogenous in cells; host or cells: HeLa cell extract
T4 sequence (Q15067 1-660): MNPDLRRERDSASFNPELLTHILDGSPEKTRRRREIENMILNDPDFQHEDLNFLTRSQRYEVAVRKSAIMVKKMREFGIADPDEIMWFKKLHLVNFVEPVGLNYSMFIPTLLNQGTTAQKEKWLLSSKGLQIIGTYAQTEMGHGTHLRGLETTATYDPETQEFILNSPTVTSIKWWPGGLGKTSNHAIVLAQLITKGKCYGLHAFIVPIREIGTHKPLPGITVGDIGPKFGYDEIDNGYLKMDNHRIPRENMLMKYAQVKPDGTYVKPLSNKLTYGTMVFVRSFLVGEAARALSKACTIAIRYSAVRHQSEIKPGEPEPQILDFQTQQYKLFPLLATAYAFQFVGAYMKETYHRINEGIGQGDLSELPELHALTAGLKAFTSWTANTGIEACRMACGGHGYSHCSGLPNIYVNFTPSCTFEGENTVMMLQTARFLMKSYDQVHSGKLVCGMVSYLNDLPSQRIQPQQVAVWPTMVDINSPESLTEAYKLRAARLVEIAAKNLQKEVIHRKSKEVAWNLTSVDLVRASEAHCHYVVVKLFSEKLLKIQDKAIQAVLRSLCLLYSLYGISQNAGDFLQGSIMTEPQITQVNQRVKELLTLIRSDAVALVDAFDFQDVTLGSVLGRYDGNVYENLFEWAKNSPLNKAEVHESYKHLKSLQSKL

[5] = molecular target: T5, HeLa cell extract proteins (Homo sapiens, UniProt Q6ZN16)
T5 construct: endogenous in cells; host or cells: HeLa cell extract
T5 sequence (Q6ZN16 1-1313): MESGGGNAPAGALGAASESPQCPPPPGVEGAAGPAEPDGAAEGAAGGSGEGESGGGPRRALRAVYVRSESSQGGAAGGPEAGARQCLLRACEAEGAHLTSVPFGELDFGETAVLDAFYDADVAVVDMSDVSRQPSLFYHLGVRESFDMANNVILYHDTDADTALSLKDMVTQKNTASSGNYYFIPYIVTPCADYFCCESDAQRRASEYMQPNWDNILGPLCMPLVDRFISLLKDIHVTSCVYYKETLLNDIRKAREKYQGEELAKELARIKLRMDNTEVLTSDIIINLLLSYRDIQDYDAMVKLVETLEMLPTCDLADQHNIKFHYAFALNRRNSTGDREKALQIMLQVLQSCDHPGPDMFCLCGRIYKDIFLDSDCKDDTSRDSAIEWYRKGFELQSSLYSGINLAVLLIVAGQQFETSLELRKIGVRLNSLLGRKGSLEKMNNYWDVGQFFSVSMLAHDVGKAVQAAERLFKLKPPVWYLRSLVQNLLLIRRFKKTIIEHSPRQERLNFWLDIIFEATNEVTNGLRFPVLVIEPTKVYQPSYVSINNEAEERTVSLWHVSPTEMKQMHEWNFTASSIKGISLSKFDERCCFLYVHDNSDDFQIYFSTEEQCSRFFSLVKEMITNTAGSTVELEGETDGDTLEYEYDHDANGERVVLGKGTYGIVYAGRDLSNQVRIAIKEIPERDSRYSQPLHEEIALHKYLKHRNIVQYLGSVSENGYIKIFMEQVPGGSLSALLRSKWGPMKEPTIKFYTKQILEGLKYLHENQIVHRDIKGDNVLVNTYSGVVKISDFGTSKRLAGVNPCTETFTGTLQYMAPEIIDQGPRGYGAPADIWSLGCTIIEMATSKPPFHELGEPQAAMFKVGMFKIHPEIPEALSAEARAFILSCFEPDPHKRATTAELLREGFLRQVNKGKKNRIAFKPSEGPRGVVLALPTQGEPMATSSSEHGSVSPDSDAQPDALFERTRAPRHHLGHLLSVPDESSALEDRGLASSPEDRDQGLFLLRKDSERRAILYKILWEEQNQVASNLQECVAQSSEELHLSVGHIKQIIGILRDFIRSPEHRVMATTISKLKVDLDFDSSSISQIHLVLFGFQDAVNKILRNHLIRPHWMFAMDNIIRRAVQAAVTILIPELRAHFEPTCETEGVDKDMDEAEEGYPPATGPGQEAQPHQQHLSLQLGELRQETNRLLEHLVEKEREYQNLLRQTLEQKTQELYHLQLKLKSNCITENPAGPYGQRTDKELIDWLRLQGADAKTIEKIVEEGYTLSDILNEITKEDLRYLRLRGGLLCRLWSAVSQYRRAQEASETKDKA

[6] = molecular target: T6, HeLa cell extract proteins (Homo sapiens, UniProt Q92734)
T6 construct: endogenous in cells; host or cells: HeLa cell extract
T6 sequence (Q92734 whole entry): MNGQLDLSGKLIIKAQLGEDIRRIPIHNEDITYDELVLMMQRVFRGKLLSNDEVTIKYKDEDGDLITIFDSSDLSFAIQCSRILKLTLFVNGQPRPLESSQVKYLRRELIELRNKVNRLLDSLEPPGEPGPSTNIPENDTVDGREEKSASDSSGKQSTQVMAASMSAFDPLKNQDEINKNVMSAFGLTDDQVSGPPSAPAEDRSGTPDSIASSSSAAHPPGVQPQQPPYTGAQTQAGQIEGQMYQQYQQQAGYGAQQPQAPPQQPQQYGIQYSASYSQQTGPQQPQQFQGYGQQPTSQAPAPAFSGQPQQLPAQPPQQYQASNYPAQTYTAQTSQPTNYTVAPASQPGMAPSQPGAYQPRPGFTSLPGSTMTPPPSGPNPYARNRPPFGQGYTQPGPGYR

T1 sequence (O00571 whole entry): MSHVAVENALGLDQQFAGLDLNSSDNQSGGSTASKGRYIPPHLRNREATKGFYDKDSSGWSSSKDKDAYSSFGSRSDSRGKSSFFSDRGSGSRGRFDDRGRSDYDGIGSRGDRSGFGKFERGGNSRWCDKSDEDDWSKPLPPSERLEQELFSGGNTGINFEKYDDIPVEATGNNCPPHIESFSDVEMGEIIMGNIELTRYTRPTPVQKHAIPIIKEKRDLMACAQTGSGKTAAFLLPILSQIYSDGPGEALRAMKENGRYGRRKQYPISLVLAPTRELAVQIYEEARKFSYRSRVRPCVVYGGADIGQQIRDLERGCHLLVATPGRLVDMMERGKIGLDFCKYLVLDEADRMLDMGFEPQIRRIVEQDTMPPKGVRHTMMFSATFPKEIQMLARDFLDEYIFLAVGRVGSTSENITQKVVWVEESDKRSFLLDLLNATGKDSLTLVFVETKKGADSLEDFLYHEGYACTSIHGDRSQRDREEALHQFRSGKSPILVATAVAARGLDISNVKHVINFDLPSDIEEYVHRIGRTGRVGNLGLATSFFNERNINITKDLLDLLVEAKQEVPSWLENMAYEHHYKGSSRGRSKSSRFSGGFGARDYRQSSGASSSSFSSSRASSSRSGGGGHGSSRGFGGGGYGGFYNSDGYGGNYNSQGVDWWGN

In the case of `Nc1nc2c(c(=O)[nH]1)N(C=O)C(CNc1ccc(C(=O)N[C@@H](CCC(=O)O)C(=O)O)cc1)CN2` (stereo partly drawn) [LEU, leucovorin], the “fold changes relative to vehicle control” value ([1]; HeLa, captured protein DDX3X) is reported as 0.94, the “fold changes relative to vehicle control” value ([2]; HeLa, protein GLUL) is reported as 0.62 and the “fold changes relative to vehicle control” value ([3]; protein CCT3, HeLa) is reported as 0.88. For the same compound, the “fold changes relative to vehicle control” value ([4]; HeLa, protein ACOX1) was 1, the “fold changes relative to vehicle control” value ([5]; HeLa, protein MAP3K15) was 1 and the “fold changes relative to vehicle control” value ([6]; HeLa, captured protein TFG) was 1.01.
In the case of `Nc1nc2[nH]cc(CCc3ccc(C(=O)N[C@@H](CCC(=O)O)C(=O)O)cc3)c2c(=O)[nH]1` [PTX, pemetrexed], the “fold changes relative to vehicle control” value [1] is reported as 0.86, the “fold changes relative to vehicle control” value [2] is reported as 0.84 and the “fold changes relative to vehicle control” value [3] is reported as 1. The “fold changes relative to vehicle control” value [4] was 0.95, the “fold changes relative to vehicle control” value [5] was 1.07 and the “fold changes relative to vehicle control” value [6] was 1.05.
In the case of `CCCCCCOc1ccc(Cc2cnc(N)nc2N)cc1` [compound 1], the “fold changes relative to vehicle control” value ([1]; protein DDX3X, HeLa) is reported as 0.96, the “fold changes relative to vehicle control” value ([2]; captured protein GLUL, HeLa) is reported as 0.97 and the “fold changes relative to vehicle control” value ([3]; protein CCT3, HeLa) is reported as 1.22. For the same compound, the “fold changes relative to vehicle control” value ([4]; HeLa, protein ACOX1) was 0.98, the “fold changes relative to vehicle control” value ([5]; captured protein MAP3K15, HeLa) was 1.03 and the “fold changes relative to vehicle control” value ([6]; protein TFG, HeLa) was 0.96.
With `CCCCCCOc1cccc(Cc2cnc(N)nc2N)c1` [compound 2] the “fold changes relative to vehicle control” value ([1]; protein DDX3X, HeLa) was 1.05, the “fold changes relative to vehicle control” value ([2]; captured protein GLUL, HeLa) was 1.02 and the “fold changes relative to vehicle control” value ([3]; protein CCT3, HeLa) was 1.72. For the same compound, the “fold changes relative to vehicle control” value ([4]; HeLa, protein ACOX1) was 0.92, the “fold changes relative to vehicle control” value ([5]; captured protein MAP3K15, HeLa) was 1.02 and the “fold changes relative to vehicle control” value ([6]; protein TFG, HeLa) was 1.16.
In the case of `Nc1nc2cccc(-c3ccccc3)c2n1Cc1ccc(Cl)c(Cl)c1` [compound 3], the “fold changes relative to vehicle control” value ([1]; protein DDX3X, HeLa) is reported as 0.94, the “fold changes relative to vehicle control” value ([2]; captured protein GLUL, HeLa) is reported as 0.88 and the “fold changes relative to vehicle control” value ([3]; protein CCT3, HeLa) is reported as 1.06. For the same compound, the “fold changes relative to vehicle control” value ([4]; HeLa, protein ACOX1) was 1.33, the “fold changes relative to vehicle control” value ([5]; captured protein MAP3K15, HeLa) was 1.01 and the “fold changes relative to vehicle control” value ([6]; protein TFG, HeLa) was 1.02.
`NCCOCCOCC(=O)Nc1nc2ncc(CNc3ccc(C(=O)NC(CCC(=O)O)C(=O)O)cc3)nc2c(=O)[nH]1` (stereo not drawn) [compound 6] was tested, and the “fold changes relative to vehicle control” value ([1]; HeLa, captured protein DDX3X) was 0.9, the “fold changes relative to vehicle control” value ([2]; HeLa, protein GLUL) was 0.81 and the “fold changes relative to vehicle control” value ([3]; protein CCT3, HeLa) was 1.16. The “fold changes relative to vehicle control” value ([4]; HeLa, protein ACOX1) was 0.99, the “fold changes relative to vehicle control” value ([5]; HeLa, protein MAP3K15) was 1.03 and the “fold changes relative to vehicle control” value ([6]; HeLa, captured protein TFG) was 1.01.
`NCCCNc1ccc(C(=O)NC(CCC(=O)O)C(=O)O)cc1` (stereo not drawn) [compound 7] was tested, and the “fold changes relative to vehicle control” value ([1]; HeLa, captured protein DDX3X) was 0.93, the “fold changes relative to vehicle control” value ([2]; HeLa, protein GLUL) was 1.07 and the “fold changes relative to vehicle control” value ([3]; protein CCT3, HeLa) was 1. The “fold changes relative to vehicle control” value ([4]; HeLa, protein ACOX1) was 0.94, the “fold changes relative to vehicle control” value ([5]; HeLa, protein MAP3K15) was 1.1 and the “fold changes relative to vehicle control” value ([6]; HeLa, captured protein TFG) was 1.06.
